Measurements taken from patent EP4464714A1, “SCREENING METHOD FOR CELL-REPELLING PEPTIDES” (Karlsruher Institut für Technologie, priority 2023, dated 2024).
“Also recorded” adds a separate entry of the source. Where two headings read alike, the source gives them in different places.

Columns and labels:
[1] = test system: SW620 colorectal cancer cells expressing the TOP-GFP construct; assay: High-throughput screening for cell repulsion/adhesion on a high-density peptide chip, fluorescence detection; assay type: cell-based; conditions: incubated for 24 hours on the peptide chip; for cell adhesion / cell repulsion on peptide spots, measured by the strength of the fluorescent signal: 1×10^7 cells in 3 ml, 30 µm × 30 µm spots
[2] = test system: SW620 colorectal cancer cells expressing the TOP-GFP construct; assay: Formation of cell patterns on alternating peptide patterns, continuous fluorescence detection (live cell imaging); assay type: cell-based; conditions: patterns of 3 sp × 3 sp and 1 sp (30 µm); up to 24 hours of incubation; Fig. 10
Source text: The settlement of cells on alternating patterns of the cell-repellent and cell-adhesive peptides IAMTPPNATEASKPQ and FLCSLFAPVCLDRPI, respectively, were examined over time (Fig. 10). […] Peptide patterns in the form of the letters KI were made of squares of 3 sp × 3 sp. The cellular patterns are clearly distinguishable as long as the area of the cell-repellent peptide has a size of 30 µm in diameter (1 sp). To follow the formation of such cellular patterns, the behaviour of cells was examined over time (continuous fluorescence detection). Fig. 10b, 10c, 10d and 10e show the different states of the same chip fragment with cell-repellent peptides at different incubation times. Relatively quickly, in the first minutes after seeding, cells randomly distribute over the entire surface (Fig. 10b) and start to form clusters (Fig. 10c), which adhere to the bottom. After that, the cell clusters leave the area of peptides with cell repulsion (Fig. 10d). […]
On the day of incubation, cells were detached using Accutase followed by selection in serum-containing medium (DMEM). […] After 24 hours, the plates were either analysed using confocal microscopy or fixed.
For imaging of the cells, a Zeiss LSM800 confocal microscope was used. […] The microscopic slide was then transferred to a live cell incubation chamber (37°C) and observed via continuous fluorescence detection for a period of 24 hours.

[3] = test system: CD44v6; conditions: human (1) background; Matzke-Ogi et al. 2016; cited from earlier work
[4] = test system: pancreatic tumour; conditions: human (1) or murine (2) background; Matzke-Ogi et al. 2016; cited from earlier work
[5] = test system: CD44v6; conditions: murine (2) background; Matzke-Ogi et al. 2016; cited from earlier work

In the case of AIKNLPPPTKGQEGS, the “cell adhesion / cell repulsion on peptide spots, measured by the strength of the fluorescent signal” value (from here on “cell adhesion / cell repulsion”) [1] is reported as “strongest cell-repellent properties”.

In the case of EVK, the “cell adhesion / cell repulsion” value [1] is reported as “repellent motif for cells”.

In the case of FLCSLFAPVCLDRPI, the “settlement of cells on alternating peptide patterns over time” value [2] is reported as “cell-adhesive”.

In the case of HPGSAVSASNAIKNL, the “cell adhesion / cell repulsion” value [1] is reported as “strongest cell-repellent properties”.

For IAMTPPNATEASKPQ, the “settlement of cells on alternating peptide patterns over time” value [2] was “cell-repellent”.

For KENGDKKIVPKKKKP, the “cell pattern (filling of peptide spots)” value ([1]; Fig. 2) was “well-defined island shape”.

For KEQWFGNRWHEGYR, the “co-receptor function of CD44v6 of the receptor tyrosine kinase MET” value (shortened to “co-receptor function”) [3] is given as “inhibit the co-receptor function of CD44v6” and the “pancreatic tumour growth and metastasis” value [4] is given as “inhibit pancreatic tumour growth and metastasis”.

For NGWQG, the “co-receptor function” value [5] is listed as “inhibit the co-receptor function of CD44v6” and the “pancreatic tumour growth and metastasis” value [4] is listed as “inhibit pancreatic tumour growth and metastasis”.

For NRWHE, the “co-receptor function” value [3] is listed as “inhibit the co-receptor function of CD44v6” and the “pancreatic tumour growth and metastasis” value [4] is listed as “inhibit pancreatic tumour growth and metastasis”.

In the case of PCQRETPEGAEAKP [SEQ ID No. 13], the “cell adhesion / cell repulsion” value [1] is reported as “repulsive”.

With QETWF the “cell adhesion / cell repulsion” value [1] was “top ten cell-repellent peptides”.

In the case of “QETWFQNGNQGKN [modified peptide of …, replacement of the amino acid W by N]”, the “cell adhesion / cell repulsion” value [1] is reported as “maximum cell repulsion”.

For QETWFQNGWQGKNP, the “co-receptor function” value [5] is listed as “inhibit the co-receptor function of CD44v6” and the “pancreatic tumour growth and metastasis” value [4] is listed as “inhibit pancreatic tumour growth and metastasis”.

With QNGNQGKN the “cell adhesion / cell repulsion” value [1] was “strong cell repulsion”.

With SDKKPVAHVVANPQAE [SEQ ID No. 11] the “cell adhesion / cell repulsion” value [1] was “repulsive”.

In the case of TPPNATEASKPQGTT, the “cell adhesion / cell repulsion” value [1] is reported as “strongest cell-repellent properties”.

With “YPYDVPDYA [HA epitope, reference compound]” the “cell adhesion / cell repulsion” value [1] was “strong cell-attractive; also recorded: highest adhesion to cells”.
